This assay concerns the target T1, human F508del CFTR (Homo sapiens, UniProt P13569, DEL508-508).
T1 construct: expressed in transfected cells; host or cells: Fisher Rat Thyroid (FRT) cells
The assay is described as follows: CFTR-YFP High Throughput Assay. The note with it: FRT cells expressing human F508del CFTR and YFP; for Emax: EMax normalized to the positive control, read-out: % Efficacy. Format: cell-based. In short, it runs like this: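 Corrector mode: 24-26 h compound exposure (2 nM-40 μM, 37° C) of FRT cells carrying human F508del CFTR and YFP-H148Q/I152L, followed by washing and 60-120 min RT stimulation with 20 μM forskolin and 30 μM P3. CFTR activity is the least-squares-fitted rate of YFP quenching (Ex 500/Em 540 nm) after iodide addition.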

T1 sequence (P13569 with tags, fused parts or gaps DEL508-508): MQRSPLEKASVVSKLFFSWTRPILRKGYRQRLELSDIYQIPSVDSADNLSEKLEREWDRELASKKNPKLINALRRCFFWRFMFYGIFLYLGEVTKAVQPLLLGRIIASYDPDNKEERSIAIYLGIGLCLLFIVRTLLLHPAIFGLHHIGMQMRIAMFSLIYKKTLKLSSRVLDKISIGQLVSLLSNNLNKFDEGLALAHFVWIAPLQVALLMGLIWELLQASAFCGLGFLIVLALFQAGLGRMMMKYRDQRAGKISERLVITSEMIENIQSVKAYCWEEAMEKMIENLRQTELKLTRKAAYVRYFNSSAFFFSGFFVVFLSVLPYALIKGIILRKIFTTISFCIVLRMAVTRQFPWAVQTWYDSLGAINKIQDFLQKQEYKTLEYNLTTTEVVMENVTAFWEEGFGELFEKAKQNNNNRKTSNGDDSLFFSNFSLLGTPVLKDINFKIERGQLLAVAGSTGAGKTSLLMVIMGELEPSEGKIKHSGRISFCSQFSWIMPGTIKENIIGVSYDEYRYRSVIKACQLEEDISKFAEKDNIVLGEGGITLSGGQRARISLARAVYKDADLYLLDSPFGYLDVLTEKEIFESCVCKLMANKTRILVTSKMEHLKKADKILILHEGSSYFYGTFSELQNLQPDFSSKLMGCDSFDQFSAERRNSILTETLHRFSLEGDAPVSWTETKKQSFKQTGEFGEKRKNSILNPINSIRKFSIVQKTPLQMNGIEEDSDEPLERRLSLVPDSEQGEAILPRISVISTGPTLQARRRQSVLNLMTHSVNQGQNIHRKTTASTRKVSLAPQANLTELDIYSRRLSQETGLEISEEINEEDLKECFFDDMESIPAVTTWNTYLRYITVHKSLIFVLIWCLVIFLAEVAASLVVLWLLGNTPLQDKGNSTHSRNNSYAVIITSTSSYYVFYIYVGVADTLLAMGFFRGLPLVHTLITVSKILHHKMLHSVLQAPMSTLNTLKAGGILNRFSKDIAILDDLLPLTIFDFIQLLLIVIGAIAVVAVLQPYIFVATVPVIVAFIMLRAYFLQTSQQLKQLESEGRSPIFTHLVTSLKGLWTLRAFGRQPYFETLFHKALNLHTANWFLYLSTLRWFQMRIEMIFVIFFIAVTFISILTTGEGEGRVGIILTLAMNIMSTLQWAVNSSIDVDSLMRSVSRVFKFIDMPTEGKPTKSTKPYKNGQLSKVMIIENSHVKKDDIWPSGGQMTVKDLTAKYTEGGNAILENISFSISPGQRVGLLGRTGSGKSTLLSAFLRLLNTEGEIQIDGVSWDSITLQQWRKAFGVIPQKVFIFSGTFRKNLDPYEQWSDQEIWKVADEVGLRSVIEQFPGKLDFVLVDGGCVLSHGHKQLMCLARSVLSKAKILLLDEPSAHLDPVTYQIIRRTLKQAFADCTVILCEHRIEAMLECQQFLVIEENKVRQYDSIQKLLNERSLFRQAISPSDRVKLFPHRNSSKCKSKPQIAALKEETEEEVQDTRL

`CCN(C(=O)Cn1nc(-c2ccc(S(N)(=O)=O)cc2)c2ccc(OC)cc2c1=O)c1ccc(OC(F)F)cc1` [Example 73, N-(4-(difluoromethoxy)phenyl)-N-ethyl-2-(7-methoxy-1-oxo-4-(4-sulfamoylphenyl)phthalazin-2(1H)-yl)acetamide]: the Emax lay in the range of 30 to 80% and the EC50 was below 10 µM. Regarding `CCN(C(=O)Cn1nc(-c2cccc(C#N)c2)c2ccc(OC)cc2c1=O)c1ccc(OC(F)F)cc1` [Example 74, 2-(4-(3-cyanophenyl)-7-methoxy-1-oxophthalazin-2(1H)-yl)-N-(4-(difluoromethoxy)phenyl)-N-ethylacetamide], the Emax fell in the range of 30 to 80%. Take `CCN(C(=O)Cn1nc(-c2cccc(C#N)c2)c2ccc(OC)cc2c1=O)c1ccc2c(c1)OC(F)(F)O2` [Example 75, 2-(4-(3-cyanophenyl)-7-methoxy-1-oxophthalazin-2(1H)-yl)-N-(2,2-difluorobenzo[d][1,3]dioxol-5-yl)-N-ethylacetamide]: the Emax was above 80% and the EC50 was below 10 µM. Consider `COc1ccc2c(-c3ccc(S(N)(=O)=O)cc3)nn(CC(=O)N(c3ccc4c(c3)OC(F)(F)O4)C(C)C)c(=O)c2c1` [Example 76, N-(2,2-difluorobenzo[d][1,3]dioxol-5-yl)-N-isopropyl-2-(7-methoxy-1-oxo-4-(4-sulfamoylphenyl)phthalazin-2(1H)-yl)acetamide], for which the Emax is above 80%. Take `COc1ccc2c(-c3cccc(C#N)c3)nn(CC(=O)N(c3ccc4c(c3)OC(F)(F)O4)C(C)C)c(=O)c2c1` [Example 77, 2-(4-(3-cyanophenyl)-7-methoxy-1-oxophthalazin-2(1H)-yl)-N-(2,2-difluorobenzo[d][1,3]dioxol-5-yl)-N-isopropylacetamide]: the Emax was above 80% and the EC50 was 10 to 20 µM.

Consider `COc1ccc2c(-c3ccc(S(N)(=O)=O)cc3)nn(CC(=O)N(c3ccc4c(c3)OC(F)(F)O4)C3CC3)c(=O)c2c1` [Example 78, N-cyclopropyl-N-(2,2-difluorobenzo[d][1,3]dioxol-5-yl)-2-(7-methoxy-1-oxo-4-(4-sulfamoylphenyl)phthalazin-2(1H)-yl)acetamide], for which the Emax was in the range of 30 to 80%. For `COc1ccc2c(-c3cccc(C#N)c3)nn(CC(=O)N(c3ccc4c(c3)OC(F)(F)O4)C3CC3)c(=O)c2c1` [Example 79, 2-(4-(3-cyanophenyl)-7-methoxy-1-oxophthalazin-2(1H)-yl)-N-cyclopropyl-N-(2,2-difluorobenzo[d][1,3]dioxol-5-yl)acetamide], the Emax was above 80%. As to `CCN(C(=O)Cn1nc(-c2ccc(S(N)(=O)=O)cc2)c2ccc(OC)cc2c1=O)c1ccc2nc(C)oc2c1` [Example 80, N-ethyl-2-(7-methoxy-1-oxo-4-(4-sulfamoylphenyl)phthalazin-2(1H)-yl)-N-(2-methylbenzo[d]oxazol-6-yl)acetamide], the Emax lay within 30 to 80% and the EC50 was 10 to 20 µM. As for `CCN(C(=O)Cn1nc(-c2cccc(C#N)c2)c2ccc(OC)cc2c1=O)c1ccc2nc(C)oc2c1` [Example 81, 2-(4-(3-cyanophenyl)-7-methoxy-1-oxophthalazin-2(1H)-yl)-N-ethyl-N-(2-methylbenzo[d]oxazol-6-yl)acetamide], the Emax is above 80% and the EC50 is below 10 µM. For the compound `CCN(C(=O)Cn1nc(-c2ccc(C(N)=O)cc2)c2ccc(OC)cc2c1=O)c1ccc2c(c1)OC(F)(F)O2` [Example 82, 4-(3-(2-((2,2-difluorobenzo[d][1, 3]dioxol-5-yl)(ethyl)amino)-2-oxoethyl)-6-methoxy-4-oxo-3,4-dihydrophthalazin-1-yl)benzamide], the Emax is 30 to 80%. Same read-out and setting: the figure for `COc1ccc2c(-c3ccc(C(N)=O)cc3)nn(CC(=O)N(C)c3ccc4c(c3)OC(F)(F)O4)c(=O)c2c1` [Example 83, 4-(3-(2-((2,2-difluorobenzo[d][1, 3]dioxol-5-yl)(methyl)amino)-2-oxoethyl)-6-methoxy-4-oxo-3,4-dihydrophthalazin-1-yl)benzamide] is 30 to 80%. Still for that read-out and setting: the figure for `CCN(C(=O)Cn1nc(-c2ccc(C(N)=O)cc2)c2ccc(OC)cc2c1=O)c1ccc2nc(C)oc2c1` [Example 84, 4-(3-(2-(ethyl(2-methylbenzo[d]oxazol-6-yl)amino)-2-oxoethyl)-6-methoxy-4-oxo-3,4-dihydrophthalazin-1-yl)benzamide] is 30 to 80%.

For the compound `[2H]C([2H])([2H])N(C(=O)Cn1nc(-c2cccc(C#N)c2)c2ccc(OC)cc2c1=O)c1ccc2nc(C)oc2c1` [Example 86, 2-(4-(3-cyanophenyl)-7-methoxy-1-oxophthalazin-2(1H)-yl)-N-(methyl-d3)-N-(2-methylbenzo[d]oxazol-6-yl)acetamide], the Emax is above 80% and the concentration for a half-maximal effect (EC50) is below 10 µM. For the compound `COc1ccc2c(-c3cccc(C#N)c3)nn(CC(=O)N(C)c3ccc4nc(C)oc4c3)c(=O)c2c1` [Example 87, 2-(4-(3-cyanophenyl)-7-methoxy-1-oxophthalazin-2(1H)-yl)-N-methyl-N-(2-methylbenzo[d]oxazol-6-yl)acetamide], the Emax is above 80% and the EC50 was below 10 µM. On to `COc1cc2c(=O)n(CC(=O)N(C)c3ccc4nc(C)oc4c3)nc(-c3cccc(F)c3)c2cc1Cl` [Example 93, 2-(6-chloro-4-(3-fluorophenyl)-7-methoxy-1-oxophthalazin-2(1H)-yl)-N-methyl-N-(2-methylbenzo[d]oxazol-6-yl)acetamide], for which the Emax was above 80%. For `COc1cc2c(=O)n(CC(=O)N(C)c3ccc4c(c3)OC(F)(F)O4)nc(-c3cccc(C#N)c3)c2cc1Cl` [Example 96, 2-(6-chloro-4-(3-cyanophenyl)-7-methoxy-1-oxophthalazin-2(1H)-yl)-N-(2,2-difluorobenzo[d][1,3]dioxol-5-yl)-N-methylacetamide], the Emax is above 80% and the EC50 was below 10 µM. Consider `Cc1nc2ccc(N(C)C(=O)Cn3nc(-c4cccc(Cl)c4)c4ccc(O)cc4c3=O)cc2o1` [Example 98, 2-(4-(3-chlorophenyl)-7-hydroxy-1-oxophthalazin-2(1H)-yl)-N-methyl-N-(2-methylbenzo[d]oxazol-6-yl)acetamide], for which the EC50 was below 10 µM. Turning to `Cc1nc2ccc(N(C(=O)Cn3nc(-c4cccc(F)c4)c4ccc(O)cc4c3=O)C3CC3)cc2o1` [Example 99, N-cyclopropyl-2-(4-(3-fluorophenyl)-7-hydroxy-1-oxophthalazin-2(1H)-yl)-N-(2-methylbenzo[d]oxazol-6-yl)acetamide], the Emax is above 80%. `Cc1nc2ccc(N(C(=O)Cn3nc(-c4cccc(Cl)c4)c4ccc(O)cc4c3=O)C3CC3)cc2o1` [Example 100, 2-(4-(3-chlorophenyl)-7-hydroxy-1-oxophthalazin-2(1H)-yl)-N-cyclopropyl-N-(2-methylbenzo[d]oxazol-6-yl)acetamide]: the 50% effective concentration (EC50) was below 10 µM. For `CN(C(=O)Cn1nc(-c2cccc(C#N)c2)c2ccc(O)cc2c1=O)c1ccc2c(c1)OC(F)(F)O2` [Example 102, 2-(4-(3-cyanophenyl)-7-hydroxy-1-oxophthalazin-2(1H)-yl)-N-(2,2-difluorobenzo[d][1,3]dioxol-5-yl)-N-methylacetamide], the Emax was above 80% and the EC50 is below 10 µM.

Regarding `CCN(C(=O)Cn1nc(-c2cccc(C#N)c2)c2ccc(O)cc2c1=O)c1ccc2c(c1)OC(F)(F)O2` [Example 103, 2-(4-(3-cyanophenyl)-7-hydroxy-1-oxophthalazin-2(1H)-yl)-N-(2,2-difluorobenzo[d][1,3]dioxol-5-yl)-N-ethylacetamide], the Emax is above 80% and the EC50 is below 10 µM. `CCOc1ccc2c(-c3cccc(C#N)c3)nn(CC(=O)N(C)c3ccc4nc(C)oc4c3)c(=O)c2c1` [Example 109, 2-(4-(3-cyanophenyl)-7-ethoxy-1-oxophthalazin-2(1H)-yl)-N-methyl-N-(2-methylbenzo[d]oxazol-6-yl)acetamide]: the Emax is above 80% and the EC50 is below 10 µM. Consider `Cc1nc2ccc(N(C)C(=O)Cn3nc(-c4cccc(C#N)c4)c4ccc(OC5CCCCC5)cc4c3=O)cc2o1` [Example 115, 2-(4-(3-cyanophenyl)-7-(cyclohexyloxy)-1-oxophthalazin-2(1H)-yl)-N-methyl-N-(2-methylbenzo[d]oxazol-6-yl)acetamide], for which the Emax was above 80% and the EC50 is below 10 µM. Consider `Cc1nc2ccc(N(C)C(=O)Cn3nc(-c4cccc(Cl)c4)c4ccc(OCc5ccccc5)cc4c3=O)cc2o1` [Example 116, 2-(7-(benzyloxy)-4-(3-chlorophenyl)-1-oxophthalazin-2(1H)-yl)-N-methyl-N-(2-methylbenzo[d]oxazol-6-yl)acetamide], for which the Emax was above 80% and the EC50 is below 10 µM. Turning to `Cc1nc2ccc(N(C)C(=O)Cn3nc(-c4cccc(C#N)c4)c4ccc(OC5CCOCC5)cc4c3=O)cc2o1` [Example 120, 2-(4-(3-cyanophenyl)-1-oxo-7-((tetrahydro-2H-pyran-4-yl)oxy)phthalazin-2(1H)-yl)-N-methyl-N-(2-methylbenzo[d]oxazol-6-yl)acetamide], the Emax is above 80% and the EC50 was below 10 µM. Consider `CCOc1cc2c(=O)n(CC(=O)N(C)c3ccc4nc(C)oc4c3)nc(-c3cccc(F)c3)c2cc1Cl` [Example 121, 2-(6-chloro-7-ethoxy-4-(3-fluorophenyl)-1-oxophthalazin-2(1H)-yl)-N-methyl-N-(2-methylbenzo[d]oxazol-6-yl)acetamide], for which the Emax was above 80%. For `CCOc1cc2c(=O)n(CC(=O)N(C)c3ccc4c(c3)OC(F)(F)O4)nc(-c3cccc(C#N)c3)c2cc1Cl` [Example 122, 2-(6-chloro-4-(3-cyanophenyl)-7-ethoxy-1-oxophthalazin-2(1H)-yl)-N-(2,2-difluorobenzo[d][1,3]dioxol-5-yl)-N-methylacetamide], the Emax is above 80% and the EC50 was below 10 µM.

For orientation: EC50 means the concentration that produces a half-maximal response.
